These results are taken from patent US20060135613A1, “Carboxamides derivatives” (Bayer Healthcare AG, priority 2002, published 2006).

Data set [1] concerns the target T1, IP receptor (Homo sapiens, UniProt P43119).
T1 construct: HEL cells were collected with centrifugation and washed with cAMP assay buffer; endogenous in cells; host or cells: HEL 92.1.7 (human erythroleukemia, ATCC)
The data set is described as follows: Iloprost-induced cAMP production assay in HEL cells (Assay 2). The class given is cell-based. Conditions: IP receptor antagonist assay, compounds of about 40 to 90% purity, read-out: Activity grade assay 2. Here is the method:
[Iloprost-Induced cAMP Production Assay in HEL Cells] (Assay 2)
HEL cells were collected with centrifugation and washed with cAMP assay buffer (CAB: Hank's balanced salt solution, 17 mM Hepes, 0.1% bovine serum albumin, 1 mM IBMX, 0.4% DMSO, and 1 mM L-ascorbic acid sodium salt (pH 7.4)). Cells were suspended at the density of 2.5×10^5 cells/ml in CAB, and twenty thousand cells in 80 μl aliquot of cell suspension were put in a well of 96 well plate (Falcon). Then, 10 μl of compound solution diluted with 1% DMSO in CAB or buffer alone was added. The plate was incubated at 37° C. for 30 min. Then, another 10 μl containing 100 nM iloprost in CAB or buffer alone was added and further incubated at 37° C. for 30 min. cAMP content in the well was measured by a cAMP ELISA kit (Applied Biosystems).
(Changes in cAMP serve as a functional read-out for many G protein-coupled receptors.)

T1 sequence (P43119 whole entry): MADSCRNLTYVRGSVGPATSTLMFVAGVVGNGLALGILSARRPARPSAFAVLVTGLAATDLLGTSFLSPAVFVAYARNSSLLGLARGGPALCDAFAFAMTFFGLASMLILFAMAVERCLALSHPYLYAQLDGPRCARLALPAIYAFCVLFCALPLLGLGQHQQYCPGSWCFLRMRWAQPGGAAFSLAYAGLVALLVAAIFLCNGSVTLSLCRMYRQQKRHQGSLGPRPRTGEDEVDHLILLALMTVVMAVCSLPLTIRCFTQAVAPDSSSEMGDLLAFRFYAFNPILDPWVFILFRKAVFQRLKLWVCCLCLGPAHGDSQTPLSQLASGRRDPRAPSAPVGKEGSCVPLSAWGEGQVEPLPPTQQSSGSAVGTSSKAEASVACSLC

Usually melting point stands for the temperature, or range, at which the solid turns liquid. Consider `O=C(/C=C/c1ccc(COc2ccccc2)cc1)NC(Cc1ccccc1)C(=O)O` (centres unmarked) [Example 1, N-(4-phenoxymethylcinnamoyl)phenylalanine], for which the melting point was determined as 205 °C. Besides, the IC50 in data set [1] is below 100 nM.
`O=C(CCc1ccc(COc2ccccc2)cc1)N[C@@H](Cc1ccccc1)C(=O)O` [Example 2, N-[3-(4-Phenoxymethylphenyl)propionyl]phenylalanine] registered a melting point of 173 to 174 °C. Also, the IC50 in data set [1] is below 100 nM.
In the same order, the values of `O=C(C#Cc1ccc(COc2ccccc2)cc1)N[C@@H](Cc1ccccc1)C(=O)O` [Example 3, N-(4-Phenoxymethylphenylpropioloyl)phenylalanine] are 146 °C and below 100 nM.
In the same order, the values of `O=C(/C=C/c1ccc(OCc2ccccc2)cc1)NC(Cc1ccccc1)C(=O)O` (centres unmarked) [Example 4, N-(4-Benzyloxycinnamoyl)phenylalanine] are 220 °C and below 100 nM.
